Test results: ChEMBL document CHEMBL1201862, “PubChem BioAssay data set” (2004)
One block for each compound: values may come before it. Active and inactive are the calls of the source.

Assays:
HEK293 [1] = assay: NOD1 signaling inhibitors, primary screen, cell-based, luminescence, uHTS (AID 1578); assay type: functional; conditions: Homo sapiens
HEK293 [2] = assay: cells; assay type: functional, cell-based; conditions: Homo sapiens
[3] = target: Nucleotide-binding oligomerization domain-containing protein 2 (Homo sapiens, UniProt Q9HC29); assay: NOD2 signaling inhibitors, cell-based, luminescence, uHTS, HEK293 (AID 1566); assay type: functional
Sequence of Nucleotide-binding oligomerization domain-containing protein 2 (Q9HC29 whole entry, the tested form may be a part): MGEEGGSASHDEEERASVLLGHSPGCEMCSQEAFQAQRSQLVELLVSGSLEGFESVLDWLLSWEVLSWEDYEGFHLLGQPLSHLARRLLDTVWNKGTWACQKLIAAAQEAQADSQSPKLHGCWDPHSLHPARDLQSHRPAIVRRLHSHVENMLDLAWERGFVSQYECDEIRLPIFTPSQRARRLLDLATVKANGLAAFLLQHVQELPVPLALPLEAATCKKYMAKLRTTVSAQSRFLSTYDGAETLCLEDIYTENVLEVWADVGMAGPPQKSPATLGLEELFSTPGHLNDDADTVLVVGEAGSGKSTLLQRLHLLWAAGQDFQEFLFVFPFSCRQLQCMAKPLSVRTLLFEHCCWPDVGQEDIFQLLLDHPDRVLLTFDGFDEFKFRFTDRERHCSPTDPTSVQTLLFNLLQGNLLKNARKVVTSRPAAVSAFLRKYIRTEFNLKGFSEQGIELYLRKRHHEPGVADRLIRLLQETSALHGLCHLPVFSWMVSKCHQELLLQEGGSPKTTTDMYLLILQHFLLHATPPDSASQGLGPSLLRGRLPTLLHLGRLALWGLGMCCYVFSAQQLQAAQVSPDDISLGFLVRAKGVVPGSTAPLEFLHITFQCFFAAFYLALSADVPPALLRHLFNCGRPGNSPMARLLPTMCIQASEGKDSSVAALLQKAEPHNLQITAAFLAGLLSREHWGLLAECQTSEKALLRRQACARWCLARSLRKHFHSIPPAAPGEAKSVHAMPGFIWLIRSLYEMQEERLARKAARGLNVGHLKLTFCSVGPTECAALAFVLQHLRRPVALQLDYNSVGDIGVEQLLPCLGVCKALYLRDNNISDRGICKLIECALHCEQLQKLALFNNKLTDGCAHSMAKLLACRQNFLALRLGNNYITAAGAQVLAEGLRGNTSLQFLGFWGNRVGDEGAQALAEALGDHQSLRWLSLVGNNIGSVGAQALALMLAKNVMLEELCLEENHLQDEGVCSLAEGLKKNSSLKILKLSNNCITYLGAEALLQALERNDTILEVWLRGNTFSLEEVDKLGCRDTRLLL

HEK293 [4] = assay: NOD2 signaling inhibitors in MDP-stimulated cells, cell-based, uHTS, luminescence (AID 2001); assay type: functional; conditions: Homo sapiens
HEK293 [5] = assay: cells; assay type: functional, cell-based; conditions: Homo sapiens; remark: listed apart in the source
CHO = assay: cytotoxicity in TLR9-MyD88 CHO cells, dose response, cytotoxicity control for TLR9-MyD88 binding inhibitor project, cell-based, luminescence (AID 588339); assay type: functional, hamster; conditions: Cricetulus griseus;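 further: CHO cells stably coexpressing TLR9 and MyD88 fusions from primary screen; compound exposure lasted 48 hours before viability readout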
Beta Lactamase [6] = target: T1, Beta Lactamase (Pseudomonas aeruginosa, UniProt Q932Y6); assay: beta-lactamase reporter inhibitor potency, dose response, artefact control for TLR9-MyD88 binding inhibitor project, BLA reporter cells, FRET fluorescence (AID 588341); assay type: cell-based;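 further: cell based assay in CHO-K1 cells stably expressing beta-lactamase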
T1 sequence (Q932Y6 whole entry): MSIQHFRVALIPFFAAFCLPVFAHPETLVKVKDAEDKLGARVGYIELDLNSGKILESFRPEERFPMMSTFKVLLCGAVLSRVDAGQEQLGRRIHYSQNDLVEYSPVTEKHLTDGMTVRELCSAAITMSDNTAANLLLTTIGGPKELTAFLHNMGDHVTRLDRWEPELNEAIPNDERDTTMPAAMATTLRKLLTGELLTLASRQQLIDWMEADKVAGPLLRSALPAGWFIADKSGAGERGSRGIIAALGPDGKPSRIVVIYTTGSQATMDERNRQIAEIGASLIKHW

INS1 = assay: beta cell apoptosis inhibitors, cytokine rescue, dose response, luminescence, retest (AID 449756); assay type: functional, cell-based; conditions: Rattus norvegicus;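 further: cell death triggered by IL-1 beta plus TNF-alpha plus IFN-gamma mixture; protective hits raise ATP signal compared with cytokine alone wells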
[7] = Shn3 3'UTR reporter inhibitors, dose response, cell-based, Clone20 osteoblasts, firefly luciferase, cherry-picked (AID 624132); assay type: functional;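 further: firefly luciferase luminescence from reporter carrying the Shn3 3'UTR in osteoblasts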
[8] = HepG2 cell cytotoxicity, dose response, cytotoxicity control for Shn3 inhibitor project, CellTiter-Glo, cherry-picked (AID 624134); assay type: functional, cell-based
[9] = control 3'UTR Renilla luciferase suppression, dose response, counter-screen for Shn3 inhibitor project, cell-based, Clone20-Shn3RL, cherry-picked (AID 624133); assay type: functional
Fatty acid synthase [10] = target: T2, Fatty acid synthase (Homo sapiens, UniProt P49327); assay: FAS thioesterase domain inhibitors, dose response, biochemical, endpoint fluorescence intensity, uHTS hits (AID 624327); assay type: functional;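 further: fluorescence from hydrolysis of an O-methyl fluorescein acyl ester substrate by the enzyme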
T2 sequence (P49327 whole entry, the tested form may be a part): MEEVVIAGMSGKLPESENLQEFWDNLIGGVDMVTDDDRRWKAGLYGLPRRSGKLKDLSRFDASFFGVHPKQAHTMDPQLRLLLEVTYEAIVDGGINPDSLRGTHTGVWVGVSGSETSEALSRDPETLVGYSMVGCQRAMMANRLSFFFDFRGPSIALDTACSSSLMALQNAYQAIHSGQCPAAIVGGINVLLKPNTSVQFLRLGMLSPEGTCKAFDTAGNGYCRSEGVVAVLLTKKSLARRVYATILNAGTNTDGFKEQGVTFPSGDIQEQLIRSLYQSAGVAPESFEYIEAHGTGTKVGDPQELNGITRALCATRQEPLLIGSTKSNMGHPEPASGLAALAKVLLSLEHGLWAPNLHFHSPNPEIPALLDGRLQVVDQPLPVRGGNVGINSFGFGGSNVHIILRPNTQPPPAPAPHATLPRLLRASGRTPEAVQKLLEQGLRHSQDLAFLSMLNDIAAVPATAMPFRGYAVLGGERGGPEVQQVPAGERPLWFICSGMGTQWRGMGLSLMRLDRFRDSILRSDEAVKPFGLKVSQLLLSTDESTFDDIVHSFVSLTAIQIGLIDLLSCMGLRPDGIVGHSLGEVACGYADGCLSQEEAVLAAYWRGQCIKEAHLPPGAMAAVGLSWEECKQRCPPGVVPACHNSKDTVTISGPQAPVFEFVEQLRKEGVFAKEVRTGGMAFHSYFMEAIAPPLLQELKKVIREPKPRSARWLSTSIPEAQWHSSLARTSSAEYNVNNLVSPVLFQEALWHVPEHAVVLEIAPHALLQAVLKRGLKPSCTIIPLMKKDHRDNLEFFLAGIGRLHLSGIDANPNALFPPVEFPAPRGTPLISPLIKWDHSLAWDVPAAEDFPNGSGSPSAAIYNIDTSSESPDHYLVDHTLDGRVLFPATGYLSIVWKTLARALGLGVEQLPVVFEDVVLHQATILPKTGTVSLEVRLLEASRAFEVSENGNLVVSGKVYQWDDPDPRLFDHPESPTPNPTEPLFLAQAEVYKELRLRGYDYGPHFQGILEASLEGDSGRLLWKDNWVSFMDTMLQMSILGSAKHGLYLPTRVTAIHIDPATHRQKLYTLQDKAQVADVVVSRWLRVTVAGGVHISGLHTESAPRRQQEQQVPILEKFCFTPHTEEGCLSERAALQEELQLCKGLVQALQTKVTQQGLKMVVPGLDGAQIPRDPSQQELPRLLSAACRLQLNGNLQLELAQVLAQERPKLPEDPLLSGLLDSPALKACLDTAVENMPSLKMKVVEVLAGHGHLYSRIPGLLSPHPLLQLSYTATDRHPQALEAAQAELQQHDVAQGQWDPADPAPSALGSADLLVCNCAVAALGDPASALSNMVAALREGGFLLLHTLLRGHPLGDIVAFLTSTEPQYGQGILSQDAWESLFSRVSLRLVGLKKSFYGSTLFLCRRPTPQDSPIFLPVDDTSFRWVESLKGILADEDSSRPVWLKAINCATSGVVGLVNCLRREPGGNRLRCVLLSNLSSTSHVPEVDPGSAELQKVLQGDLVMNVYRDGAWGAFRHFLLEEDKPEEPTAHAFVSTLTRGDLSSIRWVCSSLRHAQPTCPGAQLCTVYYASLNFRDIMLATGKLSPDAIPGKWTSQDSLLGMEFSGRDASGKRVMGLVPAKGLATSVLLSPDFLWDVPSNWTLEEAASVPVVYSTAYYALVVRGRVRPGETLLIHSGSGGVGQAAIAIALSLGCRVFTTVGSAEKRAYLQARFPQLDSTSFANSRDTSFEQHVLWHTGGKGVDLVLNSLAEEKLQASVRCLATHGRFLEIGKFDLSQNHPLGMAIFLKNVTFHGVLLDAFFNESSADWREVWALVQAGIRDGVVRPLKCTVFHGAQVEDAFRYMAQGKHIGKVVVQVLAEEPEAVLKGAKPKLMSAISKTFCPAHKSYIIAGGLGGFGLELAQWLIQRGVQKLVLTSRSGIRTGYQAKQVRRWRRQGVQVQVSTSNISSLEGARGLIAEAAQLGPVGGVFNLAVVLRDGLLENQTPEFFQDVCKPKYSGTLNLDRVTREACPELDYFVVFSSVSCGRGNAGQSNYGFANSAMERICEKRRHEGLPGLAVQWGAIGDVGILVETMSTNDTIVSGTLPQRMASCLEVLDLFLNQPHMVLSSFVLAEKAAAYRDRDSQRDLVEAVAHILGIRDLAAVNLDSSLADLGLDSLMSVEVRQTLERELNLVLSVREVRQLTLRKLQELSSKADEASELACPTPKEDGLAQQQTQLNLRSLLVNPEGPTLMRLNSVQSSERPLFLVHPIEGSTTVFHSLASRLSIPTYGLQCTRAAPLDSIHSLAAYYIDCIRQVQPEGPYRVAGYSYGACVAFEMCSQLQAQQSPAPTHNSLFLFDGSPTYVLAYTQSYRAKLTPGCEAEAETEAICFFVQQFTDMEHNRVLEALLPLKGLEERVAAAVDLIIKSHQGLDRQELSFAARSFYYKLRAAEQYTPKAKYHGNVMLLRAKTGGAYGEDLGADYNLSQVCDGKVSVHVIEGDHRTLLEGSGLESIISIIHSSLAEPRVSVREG

Fatty acid synthase [11] = target: T2, Fatty acid synthase; assay: FAS thioesterase domain inhibitors, dose response, biochemical, kinetic fluorescence intensity (AID 624326); assay type: functional;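 further: rate of fluorescence rise from hydrolysis of a fluorogenic O-methyl fluorescein ester substrate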
[12] = target: Hepatocyte nuclear factor 4-alpha (Homo sapiens, UniProt P41235); assay type: functional, cell-based;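 further: biochemical luminescence-based dose-response counterscreen measuring inhibition of HNF4 dimerization, run alongside a screen for blockers of ABHD5–perilipin-5 interaction; split luciferase complementation of HNF4 fusion proteins in cell lysate measuring dimerization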
Sequence of Hepatocyte nuclear factor 4-alpha (P41235 whole entry, the tested form may be a part): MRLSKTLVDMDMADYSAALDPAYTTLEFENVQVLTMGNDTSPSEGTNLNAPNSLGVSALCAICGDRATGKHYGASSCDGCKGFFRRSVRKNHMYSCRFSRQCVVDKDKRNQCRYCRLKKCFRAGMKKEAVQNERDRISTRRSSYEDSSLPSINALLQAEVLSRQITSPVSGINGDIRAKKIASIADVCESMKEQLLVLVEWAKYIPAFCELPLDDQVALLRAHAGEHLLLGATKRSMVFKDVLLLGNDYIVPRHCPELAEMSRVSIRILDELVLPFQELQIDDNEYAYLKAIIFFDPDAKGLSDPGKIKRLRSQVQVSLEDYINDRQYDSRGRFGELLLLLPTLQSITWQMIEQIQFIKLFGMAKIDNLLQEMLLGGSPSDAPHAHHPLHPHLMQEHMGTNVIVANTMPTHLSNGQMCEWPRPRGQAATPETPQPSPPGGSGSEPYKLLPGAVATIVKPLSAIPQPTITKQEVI

[13] = target: Photoreceptor-specific nuclear receptor (Homo sapiens, UniProt Q9Y5X4); assay type: functional, cell-based;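 further: CHO-S cells with Gal4-NCOR and VP16-NR2E3 two-hybrid luciferase reporter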
[14] = target: T3, High affinity choline transporter 1 (Homo sapiens, UniProt Q9GZV3); assay: CHT inhibitors, dose response, cell-based, 5-point CRC, membrane potential dye (AID 504840); assay type: functional
T3 sequence (Q9GZV3 whole entry): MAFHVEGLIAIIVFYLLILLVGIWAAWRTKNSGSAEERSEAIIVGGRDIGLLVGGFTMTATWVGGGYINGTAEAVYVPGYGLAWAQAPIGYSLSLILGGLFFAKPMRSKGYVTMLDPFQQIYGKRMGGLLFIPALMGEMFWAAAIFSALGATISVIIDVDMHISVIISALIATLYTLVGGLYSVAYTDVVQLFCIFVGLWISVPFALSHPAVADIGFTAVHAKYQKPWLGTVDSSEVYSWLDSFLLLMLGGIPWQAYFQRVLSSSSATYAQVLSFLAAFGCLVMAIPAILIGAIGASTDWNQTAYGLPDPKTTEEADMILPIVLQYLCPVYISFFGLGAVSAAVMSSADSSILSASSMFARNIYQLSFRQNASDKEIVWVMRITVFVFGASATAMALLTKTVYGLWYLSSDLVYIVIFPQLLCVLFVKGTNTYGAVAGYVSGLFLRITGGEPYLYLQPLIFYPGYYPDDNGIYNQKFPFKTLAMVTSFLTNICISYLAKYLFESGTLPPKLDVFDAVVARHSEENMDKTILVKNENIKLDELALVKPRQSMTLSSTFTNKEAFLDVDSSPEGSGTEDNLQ

[15] = target: T3, High affinity choline transporter 1; assay: CHT inhibitors, dose response, cell-based, 10-point CRC, membrane potential dye (AID 588401); assay type: functional;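 further: membrane potential dye fluorescence of choline-evoked depolarization via CHT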
[16] = target: T4, Neuropeptides B/W receptor type 1 (Homo sapiens, UniProt P48145); assay: GPR7 antagonist potency, late-stage follow-up, cell-based, fluorescence, dose response, set 5 (AID 588566); assay type: functional
T4 sequence (P48145 whole entry): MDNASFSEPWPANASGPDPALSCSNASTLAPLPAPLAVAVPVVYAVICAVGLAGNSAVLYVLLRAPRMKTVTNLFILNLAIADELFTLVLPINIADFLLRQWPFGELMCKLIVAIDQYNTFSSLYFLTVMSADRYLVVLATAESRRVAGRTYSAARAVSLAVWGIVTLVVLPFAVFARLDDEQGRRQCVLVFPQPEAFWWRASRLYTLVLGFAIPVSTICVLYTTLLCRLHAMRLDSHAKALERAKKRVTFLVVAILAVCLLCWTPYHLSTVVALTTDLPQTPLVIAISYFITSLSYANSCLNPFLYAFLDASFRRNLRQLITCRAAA

[17] = target: Melanin-concentrating hormone receptor 1 (Homo sapiens, UniProt Q99705); assay: Late-stage fluorescence-based counterscreen for antagonists of the G-protein coupled receptor 7 (GPR7): cell-based dose response assay to identify antagonists of the melanin-concentrating hormone receptor 1 (MCHR1) Set 5.; assay type: functional
Sequence of Melanin-concentrating hormone receptor 1 (Q99705 whole entry, the tested form may be a part): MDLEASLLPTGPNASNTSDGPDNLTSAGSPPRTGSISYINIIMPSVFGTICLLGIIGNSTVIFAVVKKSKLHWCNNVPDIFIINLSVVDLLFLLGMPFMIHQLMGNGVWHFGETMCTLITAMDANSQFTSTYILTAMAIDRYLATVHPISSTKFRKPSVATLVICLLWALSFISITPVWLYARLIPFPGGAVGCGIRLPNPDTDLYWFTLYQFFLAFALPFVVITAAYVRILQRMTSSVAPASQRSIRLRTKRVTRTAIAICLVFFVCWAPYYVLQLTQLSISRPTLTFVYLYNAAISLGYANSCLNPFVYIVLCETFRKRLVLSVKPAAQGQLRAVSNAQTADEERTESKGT

[18] = Fluorescence-based cell-based high throughput dose response assay for inhibitors of the interaction of nucleotide-binding oligomerization domain containing 2 (NOD2) and the receptor-interacting serine-threonine kinase 2 (RIPK2).; assay type: functional; conditions: Homo sapiens
Beta Lactamase [19] = target: T1, Beta Lactamase; assay: beta-lactamase reporter inhibitor potency, dose response, artefact control for NOD2-RIPK2 interaction inhibitor project, BLA reporter cells, FRET fluorescence (AID 651552); assay type: functional, cell-based
Melanocortin receptor 4 = Melanocortin receptor 4 (Homo sapiens, UniProt P32245); assay: MC4R antagonist potency on cAMP, dose response, cell-based, TR-FRET, biased antagonists (AID 602298); assay type: functional;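 further: antagonist potency against agonist-stimulated cAMP production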
Sequence of Melanocortin receptor 4 (P32245 whole entry): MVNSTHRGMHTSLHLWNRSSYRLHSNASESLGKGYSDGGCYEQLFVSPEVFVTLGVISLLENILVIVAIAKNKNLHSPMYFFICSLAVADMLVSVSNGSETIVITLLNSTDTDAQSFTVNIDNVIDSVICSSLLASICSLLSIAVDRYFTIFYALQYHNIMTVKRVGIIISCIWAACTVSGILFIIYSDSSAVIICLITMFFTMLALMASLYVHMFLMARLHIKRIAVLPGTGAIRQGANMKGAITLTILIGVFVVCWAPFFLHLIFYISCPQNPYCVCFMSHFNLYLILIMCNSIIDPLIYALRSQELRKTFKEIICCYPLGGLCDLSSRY

[20] = nonselective inhibitors of cellular cAMP signaling, dose response, counter-screen for MC4R biased antagonist project, cell-based, TR-FRET cAMP detection (AID 602305); assay type: functional;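 further: U2OS cells stimulated with forskolin near its EC80 as the cAMP inducer; potency is for inhibition of forskolin-stimulated cAMP signaling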
[21] = ARNT/TACC3 interaction disruptors, potency, confirmation, biochemical, AlphaScreen, cherry-picked samples (AID 651703); assay type: functional, Homo sapiens;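 further: His-tagged ARNT PAS-B domain paired with GST-TACC3 E629A dimer coactivator fragment; potency of inhibitors that break up the complex and lower AlphaScreen signal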

SMILES: CCN(c1ccccc1)S(=O)(=O)c1ccc(NC(=O)c2nc(S(C)(=O)=O)ncc2Cl)cc1
- EC50 (HEK293 [1]): > 20 µM (inactive)
- IC50 (HEK293 [2]): > 20 µM (inactive)
- EC50 [3]: > 20 µM (inactive)
- IC50 (HEK293 [4]): 8.24 µM (inactive)
- IC50 (HEK293 [5]): > 20 µM (inactive)
- IC50 (CHO): 2.53 µM (active)
- IC50 (Beta Lactamase [6]): 7.96 µM (active)
- AC50 (INS1): 5.28 µM (active)
- AC50 [7]: 0.562 µM (active)
- AC50 [8]: 15.2 µM (active)
- AC50 [9]: 4.56 µM (active)
- IC50 (Fatty acid synthase [10]): 6.22 µM (active)
- IC50 (Fatty acid synthase [11]): 3.48 µM (active)

- IC50 [12]: 3.79 µM (active)
SMILES: CCC(c1nc2ccccc2[nH]1)n1c(=O)c(-c2ccco2)nc2ccccc21 (stereo unspecified)

SMILES: Cc1sc2ncnc(NCC(O)c3ccccc3)c2c1C (stereo unspecified)
- AC50 (INS1): 5.29 µM (active)
- IC50 [13]: 20.9 µM (inactive)

- IC50 [14]: 10.2 µM (active)
- IC50 [15]: 4.01 µM (active)
SMILES: O=[N+]([O-])c1cc(C(F)(F)F)cc([N+](=O)[O-])c1N1CCCNCC1

- IC50 [16]: 10.3 µM (inactive)
- IC50 [17]: 10.9 µM (inactive)
SMILES: CCOC(=O)Cc1c(Cl)cnn(Cc2cccc3ccccc23)c1=O

SMILES: CCOC(=O)[C@]12Cc3ccccc3[C@H]1N(C1CCCCC1)C(=O)c1cc(OC)ccc12
- IC50 [18]: 2.28 µM (active)
- IC50 (Beta Lactamase [19]): 48 µM (inactive)
- IC50 (Fatty acid synthase [11]): 8.19 µM (active)

SMILES: O=C1OCCC1Sc1nc2ccccc2n1Cc1ccccc1 (stereo unspecified)
- IC50 (Melanocortin receptor 4): 10.9 µM (inactive)
- IC50 [20]: > 64.6 µM (inactive)

SMILES: C#CCOCCOCCOCCNc1nc(N2CCN(C(=O)[C@H](CCCCN)n3cc([C@@H](N)CO)nn3)CC2)nc(N2CCN(C(=O)[C@H](Cc3ccc(O)cc3)n3cc([C@@H](N)CC(C)C)nn3)CC2)n1
- AC50 [21]: 121 µM (active)
